Test results: ChEMBL document CHEMBL3232961, “Synthesis and evaluation of cyclohexane carboxylic acid head group containing isoxazole and thiazole analogs as DGAT1 inhibitors” (Eur J Med Chem, 2014)

Assays:
[1] = test system: Mus musculus; assay: Reduction of plasma triglyceride AUC (0 to 4 hrs) in fasted Swiss mouse at 3 mg/kg, po administered 1 hr followed by bolus dose of olive oil by acute fat tolerance test relative to vehicle-treated control; format: functional; design: scale not given: the % may be the effect or the level left
[2] = molecular target: T1, Diacylglycerol O-acyltransferase 1 (Homo sapiens, UniProt O75907); assay: Inhibition of human DGAT1 using 1,2-diacylglycerol/[14C]-oleoyl CoA as substrate assessed as [14C]-triglyceride formation after 10 mins by scintillation counting analysis
T1 sequence (O75907 whole entry): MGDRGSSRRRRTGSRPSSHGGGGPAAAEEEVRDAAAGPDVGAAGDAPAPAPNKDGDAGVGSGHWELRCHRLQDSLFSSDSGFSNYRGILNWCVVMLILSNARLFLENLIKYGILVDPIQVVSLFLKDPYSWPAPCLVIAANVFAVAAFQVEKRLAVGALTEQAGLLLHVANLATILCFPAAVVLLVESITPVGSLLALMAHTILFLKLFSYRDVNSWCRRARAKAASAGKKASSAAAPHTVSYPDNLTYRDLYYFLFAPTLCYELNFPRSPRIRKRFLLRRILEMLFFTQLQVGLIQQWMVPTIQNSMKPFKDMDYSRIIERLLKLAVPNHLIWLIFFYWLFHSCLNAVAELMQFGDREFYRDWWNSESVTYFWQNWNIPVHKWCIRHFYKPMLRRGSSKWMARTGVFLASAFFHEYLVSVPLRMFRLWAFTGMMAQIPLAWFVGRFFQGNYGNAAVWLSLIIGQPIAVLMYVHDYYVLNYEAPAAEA

| Structure (SMILES) | Activity [1] [%] | IC50 [2] [nM] |
| --- | --- | --- |
| O=C(Nc1ccc(-c2cnc(C(=O)N[C@H]3CC[C@H](C(=O)O)CC3)s2)cc1)Nc1ccccc1F | 112 |  |
| O=C(Nc1ccc(C2CCN(C(=O)[C@H]3CC[C@H](C(=O)O)CC3)CC2)cc1)c1nc(-c2ccccc2)oc1C(F)(F)F | 89 | 114 |
